Measurements reported in PubChem BioAssay (NCI).
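Grown in 96-well plates, cells were treated for 48 hours with each compound at five concentrations. Insufficient inhibition: endpoint recorded as highest concentration tested. Abbreviation: GI50, concentration required for 50% inhibition of growth. Definition used: TGI = concentration required for complete inhibition of growth.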

Legend:
Assay in all cases: inhibition of tumour cell growth, NCI panel, 48 h
[1] = system: 786-0 renal
[2] = system: A498 renal
[3] = system: A549 NSCLC
[4] = system: ACHN renal
[5] = system: BT-549 breast
[6] = system: CAKI-1 renal
[7] = system: CCRF-CEM leukemia
[8] = system: COLO 205 colon
[9] = system: DU-145 prostate
[10] = system: EKVX NSCLC
[11] = system: HCC-2998 colon
[12] = system: HCT-116 colon
[13] = system: HCT-15 colon
[14] = system: HL-60(TB) leukemia
[15] = system: HOP-62 NSCLC
[16] = system: HOP-92 NSCLC
[17] = system: HS 578T breast
[18] = system: HT29 colon
[19] = system: IGROV1 ovarian
[20] = system: K-562 leukemia
[21] = system: KM12 colon
[22] = system: LOX IMVI melanoma
[23] = system: M14 melanoma
[24] = system: MALME-3M melanoma
[25] = system: MCF7 breast
[26] = system: MDA-MB-231 breast
[27] = system: MDA-MB-435
[28] = system: MDA-MB-468 breast
[29] = system: MOLT-4 leukemia

## CN(C)c1nc(NCCNS(=O)(=O)c2ccc(C3=Nc4c(N)nc(N)nc4NC(c4ccc(C(F)(F)F)cc4)C3)cc2)nc(N2CCOCC2)n1 (configuration not stated)
[1]
  GI50: 20.8 µM
  TGI: > 100 µM
[2]
  GI50: 24.1 µM
  TGI: 82.9 µM
[3]
  GI50: 51.3 µM
  TGI: > 100 µM
[4]
  GI50: 64.4 µM
  TGI: > 100 µM
[5]
  GI50: 13.8 µM
  TGI: 31.8 µM
[6]
  GI50: 25.9 µM
  TGI: > 100 µM
[7]
  GI50: 25.9 µM
  TGI: > 100 µM
[8]
  GI50: 16.5 µM
  TGI: 35.5 µM
[9]
  GI50: 72 µM
  TGI: > 100 µM
[10]
  GI50: 47.2 µM
  TGI: > 100 µM
[11]
  GI50: 20.2 µM
  TGI: 46.4 µM
[12]
  GI50: 41.9 µM
  TGI: > 100 µM
[13]
  GI50: 30.9 µM
  TGI: > 100 µM
[14]
  GI50: 27.4 µM
  TGI: 83.9 µM
[15]
  GI50: 50.7 µM
  TGI: > 100 µM
[16]
  GI50: 7.48 µM
  TGI: 48.3 µM
[17]
  GI50: 19.2 µM
  TGI: > 100 µM
[18]
  GI50: 19.8 µM
  TGI: 48.2 µM
[19]
  GI50: 27 µM
  TGI: > 100 µM
[20]
  GI50: 29.1 µM
  TGI: > 100 µM
[21]
  GI50: 37 µM
  TGI: > 100 µM
[22]
  GI50: 17.1 µM
  TGI: 33.2 µM
[23]
  GI50: 22 µM
  TGI: 63.8 µM
[24]
  GI50: 19.9 µM
  TGI: 53.3 µM
[25]
  GI50: 18.1 µM
  TGI: 81.3 µM
[26]
  GI50: 16.9 µM
  TGI: 44.4 µM
[27]
  GI50: 34.2 µM
  TGI: > 100 µM
[28]
  GI50: 13.7 µM
  TGI: 30.9 µM
[29]
  GI50: 17.3 µM
